{"source": "patent US20170334899A1", "about": "“AMINO-SUBSTITUTED ISOTHIAZOLES” (Bayer Pharma Aktiengesellschaft, priority 2014, published 2017)", "data": [{"test_system": "human cervical tumor cell line HeLa (ATCC CCL-2)", "test": "SAC-Formation - Paclitaxel-Induced Assay", "type": "cell-based", "conditions": "Homo sapiens, HeLa, 24 h, HeLa cells, paclitaxel 0.05 μM, test range 0.005 μM-20 μM, read-out: IC50 [mol/l] SAC-Formation - Paclitaxel-Induced Assay", "method_in_brief": "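Read-out is high-content imaging of anti-phospho-H3 Ser10 (mitosis) and Hoechst 33342 (DNA, cell number), with decreased mitotic fraction marking checkpoint breakthrough. Compounds (0.005–20 μM) and 0.05 μM paclitaxel co-added to overnight-plated HeLa for 24 h at 37° C; four-parameter Hill fit.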", "units": {"IC50": "nM"}, "values": [{"smiles": "Cc1nsc(Nc2cncc(C(F)(F)F)n2)c1C(=O)Nc1ccc(OC2CCNCC2)nc1", "note": "[Example 13, 3-Methyl-N-[6-(piperidin-4-yloxy)pyridin-3-yl]-5-{[6-(trifluoromethyl)pyrazin-2-yl]-amino}-1,2-thiazole-4-carboxamide]", "IC50": 13000}, {"smiles": "Cc1nsc(Nc2cncc(C(F)(F)F)n2)c1C(=O)Nc1ccc(OC2CCN(CCF)CC2)nc1", "note": "[Example 14, N-(6-{[1-(2-Fluoroethyl)piperidin-4-yl]oxy}pyridin-3-yl)-3-methyl-5-{[6-(trifluoro-methyl)pyrazin-2-yl]amino}-1,2-thiazole-4-carboxamide]", "IC50": 630}, {"smiles": "CC(=O)N1CCC(Oc2ccc(NC(=O)c3c(C)nsc3Nc3cncc(C(F)(F)F)n3)cn2)CC1", "note": "[Example 17, N-{6-[(1-Acetylpiperidin-4-yl)oxy]pyridin-3-yl}-3-methyl-5-{[6-(trifluoromethyl)-pyrazin-2-yl]amino}-1,2-thiazole-4-carboxamide]", "IC50": 300}, {"smiles": "Cc1nsc(Nc2cnc3ccccc3n2)c1C(=O)Nc1ccc(OC2CCNCC2)nc1", "note": "[Example 19, 3-Methyl-N-[6-(piperidin-4-yloxy)pyridin-3-yl]-5-(quinoxalin-2-ylamino)-1,2-thiazole-4-carboxamide]", "IC50": 2100}, {"smiles": "Cc1nsc(Nc2cnc3ccccc3n2)c1C(=O)Nc1ccc(OC2CCN(CC(F)F)CC2)nc1", "note": "[Example 20, N-(6-{[1-(2,2-difluoroethyl)piperidin-4-yl]oxy}pyridin-3-yl)-3-methyl-5-(quinoxalin-2-ylamino)-1,2-thiazole-4-carboxamide]", "IC50": 180}, {"smiles": "CCN(CC)CCNC(=O)c1cccc(NC(=O)c2c(C)nsc2Nc2cc(C#N)ccn2)c1", "note": "[Example 174, 5-[(4-cyanopyridin-2-yl)amino]-N-(3-{[2-(diethylamino)ethyl]carbamoyl}phenyl)-3-methyl-1,2-thiazole-4-carboxamide]", "IC50": 550}, {"smiles": "Cc1nsc(Nc2cc(C#N)ccn2)c1C(=O)Nc1cccc(C(=O)NC2CC2)c1", "note": "[Example 175, 5-[(4-cyanopyridin-2-yl)amino]-N-[3-(cyclopropylcarbamoyl)phenyl]-3-methyl-1,2-thiazole-4-carboxamide]", "IC50": 2600}, {"smiles": "COC(=O)CCc1cccc(NC(=O)c2c(C)nsc2Nc2ccc(C#N)cn2)c1", "note": "[Example 176, methyl 3-{3-[({5-[(5-cyanopyridin-2-yl)amino]-3-methyl-1,2-thiazol-4-yl}carbonyl)amino]phenyl}propanoate]", "IC50": 240}, {"smiles": "Cc1nsc(Nc2cc(C#N)ccn2)c1C(=O)Nc1ccc(NC(=O)OC(C)(C)C)cc1", "note": "[Example 177, tert-butyl {4-[({5-[(4-cyanopyridin-2-yl)amino]-3-methyl-1,2-thiazol-4-yl}carbonyl)amino]phenyl}carbamate]", "IC50": 11000}, {"smiles": "Cc1nsc(Nc2cnc3ccccc3n2)c1C(=O)Nc1cccc(NC(=O)OC(C)(C)C)c1", "note": "[Example 178, tert-butyl [3-({[3-methyl-5-(quinoxalin-2-ylamino)-1,2-thiazol-4-yl]carbonyl}amino)-phenyl]carbamate]", "IC50": 260}, {"smiles": "Cc1nsc(Nc2ccc(C#N)cn2)c1C(=O)Nc1cccc(NC(=O)OC(C)(C)C)c1", "note": "[Example 179, tert-butyl {3-[({5-[(5-cyanopyridin-2-yl)amino]-3-methyl-1,2-thiazol-4-yl}carbonyl)amino]phenyl}carbamate]", "IC50": 2200}, {"smiles": "Cc1nsc(Nc2ccc(C#N)cn2)c1C(=O)Nc1cccc(N)c1", "note": "[Example 180, N-(3-aminophenyl)-5-[(5-cyanopyridin-2-yl)amino]-3-methyl-1,2-thiazole-4-carboxamide]", "IC50": 4300}, {"smiles": "Cc1nsc(Nc2cnc3ccccc3n2)c1C(=O)Nc1ccc(C(=O)OC(C)(C)C)cc1", "note": "[Example 181, tert-butyl 4-({[3-methyl-5-(quinoxalin-2-ylamino)-1,2-thiazol-4-yl]carbonyl}amino)benzoate]", "IC50": 100}, {"smiles": "Cc1nsc(Nc2cc(C#N)ccn2)c1C(=O)Nc1ccc(C(=O)OC(C)(C)C)cc1", "note": "[Example 182, tert-butyl 4-[({5-[(4-cyanopyridin-2-yl)amino]-3-methyl-1,2-thiazol-4-yl}carbonyl)amino]benzoate]", "IC50": 19}, {"smiles": "Cc1nsc(Nc2cc(C#N)ccn2)c1C(=O)Nc1cccc(NC(=O)C(C)(C)C)c1", "note": "[Example 183, 5-[(4-cyanopyridin-2-yl)amino]-N-{3-[(2,2-dimethylpropanoyl)amino]phenyl}-3-methyl-1,2-thiazole-4-carboxamide]", "IC50": 4900}, {"smiles": "Cc1nsc(Nc2cnccn2)c1C(=O)Nc1ccc(C(=O)OC(C)(C)C)cc1", "note": "[Example 184, tert-butyl 4-({[3-methyl-5-(pyrazin-2-ylamino)-1,2-thiazol-4-yl]carbonyl}amino)benzoate]", "IC50": 140}, {"smiles": "Cc1nsc(Nc2cnc3ccccc3n2)c1C(=O)Nc1ccc(NC(=O)C(C)(C)C)cc1", "note": "[Example 185, N-{4-[(2,2-dimethylpropanoyl)amino]phenyl}-3-methyl-5-(quinoxalin-2-ylamino)-1,2-thiazole-4-carboxamide]", "IC50": 4700}, {"smiles": "Cc1nsc(Nc2cnc3ccccc3n2)c1C(=O)Nc1cccc(NC(=O)C(C)(C)C)c1", "note": "[Example 186, N-{3-[(2,2-dimethylpropanoyl)amino]phenyl}-3-methyl-5-(quinoxalin-2-ylamino)-1,2-thiazole-4-carboxamide]", "IC50": 3800}, {"smiles": "Cc1nsc(Nc2cnc3ccccc3n2)c1C(=O)Nc1ccc(C(=O)O)cc1", "note": "[Example 187, 4-({[3-methyl-5-(quinoxalin-2-ylamino)-1,2-thiazol-4-yl]carbonyl}amino)benzoic acid]", "IC50": 1400}, {"smiles": "Cc1nsc(Nc2cnc3ccccc3n2)c1C(=O)Nc1ccccc1S(C)(=O)=O", "note": "[Example 188, 3-methyl-N-[2-(methylsulfonyl)phenyl]-5-(quinoxalin-2-ylamino)-1,2-thiazole-4-carboxamide]", "IC50": 10000}, {"smiles": "Cc1nsc(Nc2cncc(C(F)(F)F)n2)c1C(=O)Nc1ccc(OC2CCCN(C(=O)OC(C)(C)C)C2)nc1", "note": "(stereo not drawn) [Example 189, tert-butyl 3-[(5-{[(3-methyl-5-{[6-(trifluoromethyl)pyrazin-2-yl]amino}-1,2-thiazol-4-yl)carbonyl]amino}pyridin-2-yl)oxy]piperidine-1-carboxylate]", "IC50": 450}, {"smiles": "Cc1nsc(Nc2cncc(C(F)(F)F)n2)c1C(=O)Nc1ccc(OCCCNC(=O)OC(C)(C)C)nc1", "note": "[Example 190, tert-butyl {3-[(5-{[(3-methyl-5-{[6-(trifluoromethyl)pyrazin-2-yl]amino}-1,2-thiazoL-4-yl)carbonyl]amino}pyridin-2-yl)oxy]propyl}carbamate]", "IC50": 89}, {"smiles": "Cc1nsc(Nc2cncc(C(F)(F)F)n2)c1C(=O)Nc1ccc(OCCNC(=O)OC(C)(C)C)nc1", "note": "[Example 191, tert-butyl {2-[(5-{[(3-methyl-5-{[6-(trifluoromethyl)pyrazin-2-yl]amino}-1,2-thiazol-4-yl)carbonyl]amino}pyridin-2-yl)oxy]ethyl}carbamate]", "IC50": 37}, {"smiles": "Cc1nsc(Nc2cnc(C(F)(F)F)cn2)c1C(=O)Nc1ccc(OCCNC(=O)OC(C)(C)C)nc1", "note": "[Example 192, tert-butyl {2-[(5-{[(3-methyl-5-{[5-(trifluoromethyl)pyrazin-2-yl]amino}-1,2-thiazol-4-yl)carbonyl]amino}pyridin-2-yl)oxy]ethyl}carbamate]", "IC50": 180}, {"smiles": "Cc1nsc(Nc2cncc(C(F)(F)F)n2)c1C(=O)Nc1ccc(C(=O)OC(C)(C)C)cc1", "note": "[Example 193, tert-butyl tert-butyl 4-{[(3-methyl-5-{[6-(trifluoromethyl)pyrazin-2-yl]amino}-1,2-thiazol-4-yl)carbonyl]amino}benzoate]", "IC50": 510}, {"smiles": "Cc1nsc(Nc2cncc(C(F)(F)F)n2)c1C(=O)Nc1cccc(S(C)(=O)=O)c1", "note": "[Example 194, 3-methyl-N-[3-(methylsulfonyl)phenyl]-5-{[6-(trifluoromethyl)pyrazin-2-yl]amino}-1,2-thiazole-4-carboxamide]", "IC50": 290}, {"smiles": "Cc1nsc(Nc2cnc(C(F)(F)F)cn2)c1C(=O)Nc1cccc(S(C)(=O)=O)c1", "note": "[Example 195, 3-methyl-N-[3-(methylsulfonyl)phenyl]-5-{[5-(trifluoromethyl)pyrazin-2-yl]amino}-1,2-thiazole-4-carboxamide]", "IC50": 520}, {"smiles": "Cc1nsc(Nc2cncc(C(F)(F)F)n2)c1C(=O)Nc1ccc(OCCN)nc1", "note": "[Example 196, N-[6-(2-aminoethoxy)pyridin-3-yl]-3-methyl-5-{[6-(trifluoromethyl)pyrazin-2-yl]amino}-1,2-thiazole-4-carboxamide]", "IC50": 1300}, {"smiles": "Cc1nsc(Nc2cnc(C(F)(F)F)cn2)c1C(=O)Nc1ccc(OCCN)nc1", "note": "[Example 197, N-[6-(2-aminoethoxy)pyridin-3-yl]-3-methyl-5-{[5-(trifluoromethyl)pyrazin-2-yl]amino}-1,2-thiazole-4-carboxamide]", "IC50": 600}, {"smiles": "Cc1nsc(Nc2cnc3ccccc3n2)c1C(=O)Nc1ccc(OCCC(=O)OC(C)(C)C)nc1", "note": "[Example 198, tert-butyl 3-{[5-({[3-methyl-5-(quinoxalin-2-ylamino)-1,2-thiazol-4-yl]carbonyl}amino)pyridin-2-yl]oxy}propanoate]", "IC50": 740}, {"smiles": "Cc1nsc(Nc2ccc(C#N)cn2)c1C(=O)Nc1ccc(OCCC(=O)OC(C)(C)C)nc1", "note": "[Example 199, tert-butyl 3-({5-[({5-[(5-cyanopyridin-2-yl)amino]-3-methyl-1,2-thiazol-4-yl}carbonyl)amino]pyridin-2-yl}oxy)propanoate]", "IC50": 110}, {"smiles": "Cc1nsc(Nc2cc(C#N)ccn2)c1C(=O)Nc1ccc(OCCC(=O)OC(C)(C)C)nc1", "note": "[Example 200, tert-butyl 3-({5-[({5-[(4-cyanopyridin-2-yl)amino]-3-methyl-1,2-thiazol-4-yl}carbonyl)amino]pyridin-2-yl}oxy)propanoate]", "IC50": 1200}, {"smiles": "Cc1nsc(Nc2cnc3ccccc3n2)c1C(=O)Nc1ccc(C(N)=O)c(F)c1", "note": "[Example 201, N-(4-carbamoyl-3-fluorophenyl)-3-methyl-5-(quinoxalin-2-ylamino)-1,2-thiazole-4-carboxamide]", "IC50": 220}]}]}
